Results published in ChEMBL document CHEMBL4507276 (2021).

Experiments:
[1] = test system: Tyrosine-protein kinase ABL1 (Homo sapiens), P00519 [F317I]; settings: Compound concentration 1000.0 nM
[2] = biological target: Tyrosine-protein kinase ABL1 (Homo sapiens) (UniProt P00519); settings: Compound concentration 1000.0 nM
[3] = biological target: Calcium/calmodulin-dependent protein kinase type 1D (Homo sapiens) (UniProt Q8IU85); settings: Compound concentration 1000.0 nM
[4] = biological target: Vascular endothelial growth factor receptor 1 (Homo sapiens) (UniProt P17948); settings: Compound concentration 1000.0 nM
[5] = biological target: Interleukin-1 receptor-associated kinase 3 (Homo sapiens) (UniProt Q9Y616); settings: Compound concentration 1000.0 nM
[6] = biological target: T1, Tyrosine-protein kinase JAK3 (Homo sapiens) (UniProt P52333); settings: Compound concentration 1000.0 nM
T1 sequence (whole entry): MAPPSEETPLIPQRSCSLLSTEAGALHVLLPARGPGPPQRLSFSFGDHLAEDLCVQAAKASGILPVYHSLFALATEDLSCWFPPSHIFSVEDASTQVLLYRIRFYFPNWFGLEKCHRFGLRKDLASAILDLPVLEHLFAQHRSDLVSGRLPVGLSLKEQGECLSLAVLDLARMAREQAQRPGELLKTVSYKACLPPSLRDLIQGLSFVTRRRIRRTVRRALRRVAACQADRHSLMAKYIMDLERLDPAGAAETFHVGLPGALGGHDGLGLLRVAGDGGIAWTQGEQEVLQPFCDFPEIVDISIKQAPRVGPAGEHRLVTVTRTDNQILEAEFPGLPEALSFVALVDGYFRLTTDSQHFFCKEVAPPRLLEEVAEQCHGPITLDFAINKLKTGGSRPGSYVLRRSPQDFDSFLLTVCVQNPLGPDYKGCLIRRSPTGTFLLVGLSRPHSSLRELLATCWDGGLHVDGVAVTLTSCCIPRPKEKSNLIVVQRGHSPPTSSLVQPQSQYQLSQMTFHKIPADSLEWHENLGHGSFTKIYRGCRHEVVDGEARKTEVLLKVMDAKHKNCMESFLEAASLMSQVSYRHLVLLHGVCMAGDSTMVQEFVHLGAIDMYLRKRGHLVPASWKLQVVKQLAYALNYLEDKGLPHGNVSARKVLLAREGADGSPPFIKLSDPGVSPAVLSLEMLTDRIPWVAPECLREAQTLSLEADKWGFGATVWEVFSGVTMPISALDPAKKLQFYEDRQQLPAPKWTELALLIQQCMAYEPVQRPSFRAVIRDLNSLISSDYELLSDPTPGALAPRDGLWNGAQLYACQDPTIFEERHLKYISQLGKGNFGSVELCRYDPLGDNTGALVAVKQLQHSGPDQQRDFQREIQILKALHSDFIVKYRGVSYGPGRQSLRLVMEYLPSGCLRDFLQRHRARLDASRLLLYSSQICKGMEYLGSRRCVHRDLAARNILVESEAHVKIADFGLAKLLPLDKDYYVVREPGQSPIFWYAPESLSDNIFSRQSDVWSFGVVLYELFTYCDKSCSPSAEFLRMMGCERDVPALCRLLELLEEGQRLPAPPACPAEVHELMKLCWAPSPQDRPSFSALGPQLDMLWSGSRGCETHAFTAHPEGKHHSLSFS

[7] = biological target: T2, Mitogen-activated protein kinase kinase kinase kinase 2 (Homo sapiens) (UniProt Q12851); settings: Compound concentration 1000.0 nM
T2 sequence (whole entry): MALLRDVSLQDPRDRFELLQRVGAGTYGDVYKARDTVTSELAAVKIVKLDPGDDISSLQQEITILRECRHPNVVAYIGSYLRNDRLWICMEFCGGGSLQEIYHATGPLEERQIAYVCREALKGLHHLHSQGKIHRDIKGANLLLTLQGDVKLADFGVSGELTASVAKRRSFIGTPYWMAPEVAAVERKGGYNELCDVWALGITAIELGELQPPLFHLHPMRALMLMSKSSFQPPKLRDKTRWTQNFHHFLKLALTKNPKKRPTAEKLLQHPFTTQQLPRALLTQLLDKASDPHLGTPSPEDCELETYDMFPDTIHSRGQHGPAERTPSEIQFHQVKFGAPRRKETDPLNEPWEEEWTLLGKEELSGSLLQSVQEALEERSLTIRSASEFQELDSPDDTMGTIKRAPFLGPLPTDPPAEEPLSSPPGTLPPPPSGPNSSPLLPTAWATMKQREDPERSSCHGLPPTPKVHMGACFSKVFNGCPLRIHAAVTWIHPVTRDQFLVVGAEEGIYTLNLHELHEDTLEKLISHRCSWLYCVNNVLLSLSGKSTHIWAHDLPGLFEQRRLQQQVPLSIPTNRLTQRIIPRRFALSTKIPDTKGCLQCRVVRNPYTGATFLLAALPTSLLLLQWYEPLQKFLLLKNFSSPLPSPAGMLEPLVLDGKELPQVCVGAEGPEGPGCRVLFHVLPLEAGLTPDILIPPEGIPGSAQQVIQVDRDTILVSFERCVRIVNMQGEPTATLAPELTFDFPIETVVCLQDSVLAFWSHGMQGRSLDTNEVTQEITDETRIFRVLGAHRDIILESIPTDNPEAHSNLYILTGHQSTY

[8] = biological target: Serine/threonine-protein kinase 35 (Homo sapiens) (UniProt Q8TDR2); settings: Compound concentration 1000.0 nM
[9] = biological target: T3, Tyrosine-protein kinase Tec (Homo sapiens) (UniProt P42680); settings: Compound concentration 1000.0 nM
T3 sequence (whole entry): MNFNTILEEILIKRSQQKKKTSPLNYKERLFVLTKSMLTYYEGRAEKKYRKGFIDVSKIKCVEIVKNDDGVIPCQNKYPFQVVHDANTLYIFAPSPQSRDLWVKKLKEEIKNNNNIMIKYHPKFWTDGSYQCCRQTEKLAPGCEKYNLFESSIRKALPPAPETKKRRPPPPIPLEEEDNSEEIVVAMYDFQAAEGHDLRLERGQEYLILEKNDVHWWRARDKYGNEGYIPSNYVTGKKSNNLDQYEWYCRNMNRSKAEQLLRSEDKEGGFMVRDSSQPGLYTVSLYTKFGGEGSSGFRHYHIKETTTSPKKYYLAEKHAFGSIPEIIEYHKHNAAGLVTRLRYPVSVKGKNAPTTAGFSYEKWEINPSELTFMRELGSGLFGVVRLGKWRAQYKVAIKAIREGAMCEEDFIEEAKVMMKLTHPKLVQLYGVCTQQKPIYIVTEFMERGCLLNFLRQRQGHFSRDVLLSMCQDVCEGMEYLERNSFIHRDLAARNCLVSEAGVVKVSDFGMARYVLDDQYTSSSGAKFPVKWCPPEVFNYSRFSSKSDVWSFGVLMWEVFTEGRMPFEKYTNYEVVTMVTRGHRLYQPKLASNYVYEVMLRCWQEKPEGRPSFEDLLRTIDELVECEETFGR

[10] = biological target: Histamine H2 receptor (Homo sapiens) (UniProt P25021); settings: Compound concentration 10.0 uM
Sequence of Histamine H2 receptor (Homo sapiens) (P25021 whole entry): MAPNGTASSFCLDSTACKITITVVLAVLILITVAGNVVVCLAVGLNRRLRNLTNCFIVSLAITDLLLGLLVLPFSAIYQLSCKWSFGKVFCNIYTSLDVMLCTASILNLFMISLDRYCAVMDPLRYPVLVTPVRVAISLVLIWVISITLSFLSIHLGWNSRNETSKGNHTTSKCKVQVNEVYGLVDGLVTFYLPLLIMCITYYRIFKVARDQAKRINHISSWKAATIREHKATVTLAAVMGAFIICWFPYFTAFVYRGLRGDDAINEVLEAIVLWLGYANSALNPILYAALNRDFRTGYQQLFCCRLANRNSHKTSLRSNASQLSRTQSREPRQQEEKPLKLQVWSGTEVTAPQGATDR

Sequence of Serine/threonine-protein kinase 35 (Homo sapiens) (Q8TDR2 whole entry): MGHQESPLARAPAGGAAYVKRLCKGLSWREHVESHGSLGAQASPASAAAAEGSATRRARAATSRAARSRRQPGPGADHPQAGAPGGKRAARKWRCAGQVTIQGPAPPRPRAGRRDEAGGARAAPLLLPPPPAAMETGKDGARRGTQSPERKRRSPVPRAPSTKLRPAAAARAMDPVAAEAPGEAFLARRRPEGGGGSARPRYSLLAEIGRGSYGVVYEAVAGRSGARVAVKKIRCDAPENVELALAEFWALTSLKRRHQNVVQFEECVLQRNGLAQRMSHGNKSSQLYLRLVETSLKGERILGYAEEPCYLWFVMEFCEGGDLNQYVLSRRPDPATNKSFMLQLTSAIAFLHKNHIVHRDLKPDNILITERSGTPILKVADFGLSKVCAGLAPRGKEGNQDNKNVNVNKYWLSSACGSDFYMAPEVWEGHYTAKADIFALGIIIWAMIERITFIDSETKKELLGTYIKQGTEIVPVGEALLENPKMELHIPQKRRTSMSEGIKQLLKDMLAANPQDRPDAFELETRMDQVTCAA
Sequence of Calcium/calmodulin-dependent protein kinase type 1D (Homo sapiens) (Q8IU85 whole entry, looked up): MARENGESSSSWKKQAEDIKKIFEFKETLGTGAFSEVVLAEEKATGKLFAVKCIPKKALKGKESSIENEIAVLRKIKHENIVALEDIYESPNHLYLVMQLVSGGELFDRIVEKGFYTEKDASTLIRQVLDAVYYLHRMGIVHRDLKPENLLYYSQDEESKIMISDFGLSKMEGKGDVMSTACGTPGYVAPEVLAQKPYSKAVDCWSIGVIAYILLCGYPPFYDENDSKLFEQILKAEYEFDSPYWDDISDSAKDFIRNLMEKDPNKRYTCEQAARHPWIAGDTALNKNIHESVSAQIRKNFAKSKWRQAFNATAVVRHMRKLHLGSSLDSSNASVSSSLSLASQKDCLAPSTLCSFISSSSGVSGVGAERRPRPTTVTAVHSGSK
Sequence of Tyrosine-protein kinase ABL1 (Homo sapiens) (P00519 whole entry): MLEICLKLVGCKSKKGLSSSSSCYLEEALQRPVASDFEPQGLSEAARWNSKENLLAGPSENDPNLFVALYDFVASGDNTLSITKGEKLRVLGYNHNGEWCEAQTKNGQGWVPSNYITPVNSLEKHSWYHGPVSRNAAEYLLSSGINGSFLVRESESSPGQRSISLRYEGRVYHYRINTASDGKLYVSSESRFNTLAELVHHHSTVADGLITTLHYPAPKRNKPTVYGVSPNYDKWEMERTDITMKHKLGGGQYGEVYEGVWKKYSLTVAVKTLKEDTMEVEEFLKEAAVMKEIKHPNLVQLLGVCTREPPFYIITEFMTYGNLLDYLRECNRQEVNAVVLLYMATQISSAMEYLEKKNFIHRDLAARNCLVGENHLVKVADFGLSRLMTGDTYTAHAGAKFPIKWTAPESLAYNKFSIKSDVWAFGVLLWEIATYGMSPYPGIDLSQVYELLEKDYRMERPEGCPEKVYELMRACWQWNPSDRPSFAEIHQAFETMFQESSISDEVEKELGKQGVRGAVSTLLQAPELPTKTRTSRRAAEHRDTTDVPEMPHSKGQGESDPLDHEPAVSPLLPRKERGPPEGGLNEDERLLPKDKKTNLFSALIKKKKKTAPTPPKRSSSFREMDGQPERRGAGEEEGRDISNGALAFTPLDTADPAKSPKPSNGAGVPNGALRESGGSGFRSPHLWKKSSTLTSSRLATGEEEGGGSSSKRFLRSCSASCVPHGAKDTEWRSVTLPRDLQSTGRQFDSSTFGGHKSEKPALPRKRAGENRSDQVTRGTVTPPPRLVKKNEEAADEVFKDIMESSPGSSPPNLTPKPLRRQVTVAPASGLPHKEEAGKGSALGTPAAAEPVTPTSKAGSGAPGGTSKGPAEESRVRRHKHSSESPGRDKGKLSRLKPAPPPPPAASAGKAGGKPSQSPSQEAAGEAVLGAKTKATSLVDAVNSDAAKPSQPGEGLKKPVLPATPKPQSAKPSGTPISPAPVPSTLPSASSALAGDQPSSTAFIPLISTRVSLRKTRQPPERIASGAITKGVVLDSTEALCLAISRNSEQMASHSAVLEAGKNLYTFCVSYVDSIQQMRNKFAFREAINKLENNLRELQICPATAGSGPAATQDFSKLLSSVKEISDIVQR
Sequence of Tyrosine-protein kinase ABL1 (Homo sapiens), P00519 [F317I] (P00519 whole entry F317I): as the sequence (P00519 whole entry) above, with F317I counted along it
Sequence of Interleukin-1 receptor-associated kinase 3 (Homo sapiens) (Q9Y616 whole entry): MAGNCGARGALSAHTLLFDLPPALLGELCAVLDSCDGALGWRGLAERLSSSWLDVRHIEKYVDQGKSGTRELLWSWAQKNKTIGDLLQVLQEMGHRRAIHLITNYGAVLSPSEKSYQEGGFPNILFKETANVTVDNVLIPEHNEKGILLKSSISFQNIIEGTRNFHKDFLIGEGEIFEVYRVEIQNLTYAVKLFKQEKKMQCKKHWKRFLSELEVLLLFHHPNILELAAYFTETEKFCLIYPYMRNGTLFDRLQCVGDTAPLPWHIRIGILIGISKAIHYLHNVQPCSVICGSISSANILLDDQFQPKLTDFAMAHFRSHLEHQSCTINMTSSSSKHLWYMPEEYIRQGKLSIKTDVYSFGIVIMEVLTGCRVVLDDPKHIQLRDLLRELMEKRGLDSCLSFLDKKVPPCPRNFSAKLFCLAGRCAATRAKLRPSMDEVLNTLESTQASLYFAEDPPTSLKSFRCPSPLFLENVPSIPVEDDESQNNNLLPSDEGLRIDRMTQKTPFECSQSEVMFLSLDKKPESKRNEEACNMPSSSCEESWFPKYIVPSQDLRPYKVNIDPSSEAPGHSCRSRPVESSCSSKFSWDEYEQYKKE
Sequence of Vascular endothelial growth factor receptor 1 (Homo sapiens) (P17948 whole entry): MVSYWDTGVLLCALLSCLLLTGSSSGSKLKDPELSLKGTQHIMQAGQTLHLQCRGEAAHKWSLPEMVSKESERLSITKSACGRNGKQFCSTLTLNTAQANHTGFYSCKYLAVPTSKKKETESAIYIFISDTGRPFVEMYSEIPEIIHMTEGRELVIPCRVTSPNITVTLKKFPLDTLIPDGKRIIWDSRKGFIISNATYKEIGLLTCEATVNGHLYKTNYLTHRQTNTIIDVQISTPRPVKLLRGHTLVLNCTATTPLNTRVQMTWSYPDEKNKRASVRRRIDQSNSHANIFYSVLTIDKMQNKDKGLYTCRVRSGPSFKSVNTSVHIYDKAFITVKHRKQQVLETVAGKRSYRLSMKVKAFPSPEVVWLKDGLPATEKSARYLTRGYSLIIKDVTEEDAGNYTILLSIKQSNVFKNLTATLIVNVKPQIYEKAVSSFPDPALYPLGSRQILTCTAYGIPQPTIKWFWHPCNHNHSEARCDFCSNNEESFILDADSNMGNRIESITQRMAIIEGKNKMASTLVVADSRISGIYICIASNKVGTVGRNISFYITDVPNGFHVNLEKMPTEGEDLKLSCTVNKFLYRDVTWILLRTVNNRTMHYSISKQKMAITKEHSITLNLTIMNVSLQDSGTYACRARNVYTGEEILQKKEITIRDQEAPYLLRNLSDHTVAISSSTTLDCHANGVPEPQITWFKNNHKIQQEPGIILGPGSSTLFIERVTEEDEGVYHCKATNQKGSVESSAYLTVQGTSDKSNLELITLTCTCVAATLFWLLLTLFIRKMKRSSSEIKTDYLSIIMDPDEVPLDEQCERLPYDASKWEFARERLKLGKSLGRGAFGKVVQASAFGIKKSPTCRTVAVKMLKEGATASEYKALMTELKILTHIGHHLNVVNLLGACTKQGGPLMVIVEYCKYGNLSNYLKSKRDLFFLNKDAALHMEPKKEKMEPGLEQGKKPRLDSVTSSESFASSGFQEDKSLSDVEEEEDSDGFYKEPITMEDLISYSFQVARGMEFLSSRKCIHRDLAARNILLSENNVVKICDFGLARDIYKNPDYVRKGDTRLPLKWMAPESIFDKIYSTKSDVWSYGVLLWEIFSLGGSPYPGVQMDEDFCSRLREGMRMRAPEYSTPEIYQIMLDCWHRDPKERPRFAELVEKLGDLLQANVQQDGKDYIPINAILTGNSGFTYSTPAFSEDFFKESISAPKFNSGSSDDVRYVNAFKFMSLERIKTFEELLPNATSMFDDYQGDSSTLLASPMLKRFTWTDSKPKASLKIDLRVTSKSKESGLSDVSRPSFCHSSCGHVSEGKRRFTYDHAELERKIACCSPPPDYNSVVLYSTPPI

CN(C)C(=O)Cn1cc(-c2nc(C3(c4ccc(-c5cnc(N)nc5)cc4)CC3)no2)cn1 [BI 0153]
inactive: residual activity [1] 76% | residual activity [2] 93% | residual activity [3] 100% | residual activity [4] 100% | residual activity [5] 96% | residual activity [6] 80% | residual activity [7] 89% | residual activity [8] 94% | residual activity [9] 93% | inhibition [10] -9.18%

CN(C)C(=O)Cn1cc(-c2nc([C@@](C)(c3ccc(-c4cnc(N)nc4)cc3)C3CC3)no2)cn1 [BI 665915]
inactive: residual activity [1] 96% | residual activity [2] 84% | residual activity [3] 100% | residual activity [4] 100% | residual activity [5] 100% | residual activity [6] 95% | residual activity [7] 100% | residual activity [8] 88% | residual activity [9] 93% | inhibition [10] -8.4%
